From paper PMC12362594, “Design, Synthesis and Preclinical Evaluation of a Brain-Permeable PET Tracer for P2Y12 Receptor Imaging in the Brain” (Journal of Medicinal Chemistry, 2025)
“And” between values parts separate entries of the source, which are not always exact repeats. Equal values may be shown once.

Assays:
P2Y12 receptor = molecular target: P2Y12 receptor; set-up: method as in not given; conditions: Chinese hamster ovarian cell membranes; reported values from literature; ref not given; cited from earlier work
P2Y12R [1] = molecular target: P2Y12R (Homo sapiens, UniProt Q9H244); experiment: cell-based; conditions: IC50, [33P]2-MeSADP competitor; triplicates, mean; footnote b values: three independent experiments, mean ± SD
Sequence of P2Y12R (Homo sapiens, UniProt Q9H244) (Q9H244 whole entry): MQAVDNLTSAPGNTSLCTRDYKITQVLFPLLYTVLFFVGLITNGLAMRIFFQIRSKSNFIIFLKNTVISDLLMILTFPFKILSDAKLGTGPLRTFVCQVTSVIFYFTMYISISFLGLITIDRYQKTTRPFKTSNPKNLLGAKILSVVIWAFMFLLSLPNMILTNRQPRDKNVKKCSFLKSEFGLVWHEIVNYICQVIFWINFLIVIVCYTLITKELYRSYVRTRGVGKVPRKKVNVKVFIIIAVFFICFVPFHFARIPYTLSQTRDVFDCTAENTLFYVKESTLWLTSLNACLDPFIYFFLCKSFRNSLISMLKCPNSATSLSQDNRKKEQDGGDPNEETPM
Protocol: The cell cultures were maintained in an incubator at 37 °C under a humidified and 5% CO2-conditioned atmosphere. Cells were passaged at 80% confluency. For binding assays, cells were harvested with Trypsin-EDTA (5 mL, Gibco) and resuspended in medium. The suspension was centrifuged at 1000g for 5 min and the supernatant was discarded. The cells were adjusted to assay cell concentration (2 × 10^6 cells/mL) by the addition of D-PBS and stored at 37 °C up to 1 h prior to the binding assay.
The mixture was transferred to a 96-well filter plate (1.0 μm glass fiber filter, MultiScreenHTS FB Filter Plate, Merck Millipore, Billercia, MA) and filtered with a vacuum manifold (MultiScreenHTS Vacuum Manifold, Merck Millipore, Billercia, MA). The filters were washed by the addition of cold PBS buffer (4 × 200 μL) and dried at rt for 1 h. Afterward, a punch-tip plate was mounted and the filters were separated into scintillation vials (10 mL) containing scintillation cocktail (4 mL, Rotiszint eco plus LSC-Universalcocktail). […] Bound activity was plotted as a function of ligand concentration in GraphPad Prism 8.0 (GraphPad Software, version 8.4.3., San Diego, CA).

[2] = Ex vivo biodistribution 60 min p.i.; type: in vivo, mouse; conditions: WT mice
[3] = In vitro stability in PBS, radio-HPLC; conditions: PBS formulation, 37 °C
[4] = Log D 7.4 shake flask method, n-octanol/PBS; conditions: pH 7.4
Protocol: The distribution of [^18F]12 between n-octanol and PBS buffer was determined by the shake-flask method at rt. […] After 30 min, three samples (100 μL) were taken from each phase. […] Radioactivity for all samples was quantified by a γ-counter (counting time 1 min, counting window 450–570 keV, HIDEX AMG γ Counter version 1.6.0.0, Turku, Finland).

[5] = In vitro stability in human blood/plasma, radio-HPLC; conditions: 37 °C
P2Y12R [6] = molecular target: T1, P2Y12R (Mus musculus, UniProt Q9CPV9); experiment: Dynamic in vivo PET imaging in WT, PLX and Trem2-/- mice; conditions: for maximum brain uptake C max: whole brain TAC
T1 sequence (Q9CPV9 whole entry): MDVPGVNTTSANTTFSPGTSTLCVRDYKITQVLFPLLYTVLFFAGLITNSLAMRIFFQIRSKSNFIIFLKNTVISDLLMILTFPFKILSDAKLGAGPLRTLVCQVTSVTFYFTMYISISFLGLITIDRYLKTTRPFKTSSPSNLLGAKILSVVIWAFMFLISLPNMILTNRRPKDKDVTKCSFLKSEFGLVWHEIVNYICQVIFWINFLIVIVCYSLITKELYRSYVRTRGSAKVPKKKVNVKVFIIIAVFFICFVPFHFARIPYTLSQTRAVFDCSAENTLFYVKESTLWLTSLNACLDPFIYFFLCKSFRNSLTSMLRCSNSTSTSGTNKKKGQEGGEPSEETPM
Protocol: Dynamic in vivo PET imaging was carried out in WT mice (n = 8) in order to assess the tracer distribution and brain uptake for [^18F]12 (Figure A). An initial peak of activity and subsequent rapid washout in blood and lungs was observed after tracer injection. The activity then predominantly accumulated in the liver, kidneys, bladder and intestines (Figure B). […] Dynamic in vivo PET imaging was repeated with WT mice (n = 2) under self-block conditions. […] Mouse organs were collected 60 min p.i. after intracardial perfusion to quantify the tracer uptake ex vivo.
To exclude a potential bias in brain PET interpretation caused by varying blood levels, volume-of-distribution (V T) images were computed using an image-derived cardiac input function.
The mice were scanned first with CT (70 kVp/650 μA, exposure time 300 ms, Helical 1.0 pitch). […] PET images of each mouse were coregistered with CT images of the corresponding mouse. A standardized global mean volume of interest (VOI) was used to assess tracer enrichment in the brain and to generate time-activity curves. For liver, bladder and kidney, VOIs were manually drawn as spheres. Data are reported as %ID/g or SUV. For each dynamic PET scan, VT was calculated using the method described by Logan et al., employing a cardiac input function obtained from a standardized VOI. The resulting brain V T image was then analyzed using a standardized global mean VOI. No corrections were made for radiometabolites.

[7] = Ex vivo metabolite analysis by radio-HPLC (plasma, liver, brain); conditions: 60 min p.i.
Protocol: 60 min after tracer administration, mice were transferred to the anesthesia box for isoflurane overdose and euthanized by cervical dislocation. Mouse organs and blood samples were collected, weighed and counted in a γ-counter. Blood samples were obtained by cardiac puncture and transferred to EDTA tubes (Microvette 500 K3E, Sarstedt, Nümbrecht, Germany) to prevent platelet aggregation. Blood samples were centrifuged at 3000g for 5 min to isolate blood plasma. An equal volume of TFA solution (10%) was added to plasma to precipitate remaining plasma proteins. The precipitate was separated by centrifugation at 20,817g for 5 min. […] Brain and liver samples were homogenized (Ika disperser T8.10) in a 1:1 mixture of MeCN and H2O and centrifuged at 3000g for 5 min.

P2Y12R [8] = molecular target: T1, P2Y12R; experiment: In vitro autoradiography on mouse brain sections; type: binding; set-up: from tissue; host or cells: brain of living WT, PLX-5622-treated and Trem2-/- mice
Protocol: In vitro ARG experiments on brain sections from all animal models were performed under baseline and blocking conditions. […] However, as already concluded from our PET data (Figure ), the high signal in PLX sections may reflect a substantial amount of nonspecific (NSB) or off-target binding.
WT, PLX and Trem2^–/– mouse brain sections were thawed to rt for 5 min and then preincubated with PBS buffer (pH = 7.4) for 10 min. Sections were then incubated with a maximum of 0.5 MBq/mL [^18F]12 tracer formulation at rt for 45 min in PBS buffer. […] Subsequently, sections were washed with 30% ethanol for 1 min, 70% ethanol for 2 min and PBS for 1 min, before leaving them to dry at rt for 60 min. Afterward, brain sections were exposed to a phosphor imaging plate at rt for 24 h and then scanned with a CR-Reader (CR35 BIO, DÜRR MEDICAL, Bietigheim-Bissingen, Germany). The images were analyzed using Aida Image Analyzer software (v.4.50.010, Elysia-raytest GmbH, Straubenhardt, Germany). Quantification was performed by placing a region of interest (ROI) in the CTX and the hypothalamus (HYP) as pseudo reference region. Results are either expressed as normalized intensity relative to maximal intensity after background subtraction or as CTX to HYP ratio.

P2Y12R [9] = molecular target: T1, P2Y12R; experiment: Correlation of PET signal with immunohistochemistry; type: in vivo; set-up: from tissue; host or cells: brain of living WT, PLX-5622-treated and Trem2-/- mice; conditions: cortical SUV 25–60 min p.i.
Protocol: Ex vivo immunohistochemical evaluation of Iba1 and P2Y12R expression was performed for a subset of mice (4 WT, 4 PLX, 8 Trem2^–/–) to correlate P2Y12 PET signal with target expression. […] High levels of Iba1 and P2Y12R were also detectable in Trem2^–/– mice, but reflecting the results of the PET studies, P2Y12R levels were not elevated compared to WT mice. Cortical SUV levels, derived from PET imaging in the most significant time frame (25–60 min p.i.) (Figure S12D), were correlated with Iba1 or P2Y12R expression density. A strong association between Iba1 signal and tracer uptake (R = 0.6589, p = 0.0055, Figure B) and between the P2Y12R signal and tracer uptake (R = 0.754, p = 0.0007, Figure C) was observed. The P2Y12 signal was well associated with Iba1 (R = 0.6, p = 0.014, Figure D) indicating predominant microglial receptor visualization.
Paraformaldehyde-fixed 50 μm thick sagittal brain sections were incubated overnight at 4 °C in PBS with 5% normal goat serum and 0.5% Triton X-100 containing guinea pig monoclonal anti-Iba1 primary antibody (1:500, Synaptic Systems GmbH, Göttingen, Germany, 234308) and rat monoclonal anti-P2Y12R primary antibody (1:200, P2YM 17A12, this work). […] The images were processed using the LAS X Software (version 3.9.1.28433), and analysis was conducted with FiJi/ImageJ (version 1.54f) by quantifying Iba1 and P2Y12R signal over a predefined threshold. […]

SMILES: CCOC(=O)c1cc(C#N)c(N2CCC(C(=O)NS(=O)(=O)Cc3ccccc3)CC2)nc1C [Compound 5, Ethyl 6-(4-((Benzylsulfonyl)-carbamoyl)-piperidin-1-yl)-5-cyano-2-methylnicotinate, reference compound]
- IC50 (P2Y12 receptor): 11 nM

SMILES: CCOC(=O)c1cc(C#N)c(N2CCN(C(=O)NCc3ccc(F)cc3)CC2)nc1C [Compound 7, Ethyl 5-Cyano-6-(4-((4-fluorobenzyl)-carbamoyl)-piperazin-1-yl)-2-methylnicotinate]
- IC50 (P2Y12R [1]): 1840 nM

SMILES: N#Cc1cc2c(nc1N1CCN(C(=O)NCc3ccc(F)cc3)CC1)COC2=O [Compound 8, 4-(3-Cyano-5-oxo-5,7-dihydrofuro[3,4-b]-pyridin-2-yl)-N-(4-fluorobenzyl)-piperazine-1-carboxamide]
- IC50 (P2Y12R [1]): 1840 nM and 5710 nM

SMILES: CCOC(=O)c1ccc(N2CCC(C(=O)NCc3ccc(F)cc3)CC2)nc1C [Compound 9, Ethyl 6-(4-((4-Fluorobenzyl)-carbamoyl)-piperidin-1-yl)-2-methylnicotinate]
- IC50 (P2Y12R [1]): 762 nM

SMILES: N#Cc1cc2c(nc1N1CCC(C(=O)NCc3ccc(F)cc3)CC1)COC2=O [Compound 14, 1-(3-Cyano-5-oxo-5,7-dihydrofuro[3,4-b]-pyridin-2-yl)-N-(4-fluorobenzyl)-piperidine-4-carboxamide]
- IC50 (P2Y12R [1]): 199 nM

SMILES: CCOC(=O)c1ccc(N2CCC(C(=O)NCCc3ccc(F)cc3)CC2)nc1C [Compound 15, Ethyl 6-(4-((4-Fluorophenethyl)-carbamoyl)-piperidin-1-yl)-2-methylnicotinate]
- IC50 (P2Y12R [1]): 1260 nM

SMILES: CCOC(=O)c1cnc(N2CCC(C(=O)NCCc3ccc(F)cc3)CC2)c(Cl)c1 [Compound 16, Ethyl 5-Chloro-6-(4-((4-fluorophenethyl)-carbamoyl)-piperidin-1-yl)-nicotinate]
- IC50 (P2Y12R [1]): 661 nM

SMILES: CCOC(=O)c1cc(Cl)c(N2CCC(C(=O)NCCc3ccc(F)cc3)CC2)nc1C [Compound 17, Ethyl 5-Chloro-6-(4-((4-fluorophenethyl)-carbamoyl)-piperidin-1-yl)-2-methylnicotinate]
- IC50 (P2Y12R [1]): 661 nM and 469 nM

SMILES: CCOC(=O)c1cc(C#N)c(N2CCC(C(=O)NCCc3ccc(F)cc3)CC2)nc1C [Compound 18, Ethyl 5-Cyano-6-(4-((4-fluorophenethyl)-carbamoyl)-piperidin-1-yl)-2-methylnicotinate]
- IC50 (P2Y12R [1]): 27100 nM

SMILES: CCCOc1cc(N2CCC(C(=O)NCCc3ccc(F)cc3)CC2)c(Cl)cc1C(=O)OCC [Compound 19, Ethyl 5-Chloro-4-(4-((4-fluorophenethyl)-carbamoyl)-piperidin-1-yl)-2-propoxybenzoate]
- IC50 (P2Y12R [1]): 27100 nM and 3670 nM

SMILES: CCOC(=O)c1ccc(N2CC(C(=O)NCc3ccc(F)cc3)C2)nc1C [Compound 20, Ethyl 6-(3-((4-Fluorobenzyl)-carbamoyl)-azetidin-1-yl)-2-methylnicotinate]
- IC50 (P2Y12R [1]): 806 nM

SMILES: CCOC(=O)c1cnc(N2CC(C(=O)NCc3ccc(F)cc3)C2)c(Cl)c1 [Compound 21, Ethyl 5-Chloro-6-(3-((4-fluorobenzyl)-carbamoyl)-azetidin-1-yl)-nicotinate]
- IC50 (P2Y12R [1]): 566 nM

SMILES: CCOC(=O)c1cc(C#N)c(N2CCC(C(=O)NCc3ccc([18F])cc3)CC2)nc1C [[^18F]12]
- Heart uptake ([2]; n = 2): 1.30 ± 0.51 %ID/g
- Kidney uptake ([2]; n = 2): 5.5 ± 1.1 %ID/g
- Liver uptake ([2]; n = 2): 19.6 ± 4.8 %ID/g
- Lung uptake ([2]; n = 2): 0.68 ± 0.15 %ID/g
- Pancreas uptake ([2]; n = 2): 0.79 ± 0.14 %ID/g
- Plasma uptake ([2]; n = 2): 1.58 ± 0.78 %ID/g
- Spleen uptake ([2]; n = 2): 0.77 ± 0.19 %ID/g
- Kidney uptake ([2]; n = 2, listed as [18F]12): 5.51 ± 1.08 %ID/g
- Liver uptake ([2]; n = 2, listed as [18F]12): 19.62 ± 4.75 %ID/g
- Blood uptake ([2]; n = 12): 1.2 ± 0.6 %ID/g
- Brain uptake ([2]; n = 12): 0.6 ± 0.2 %ID/g
- Blood uptake ([2]; n = 12, listed as [18F]12): 1.24 ± 0.56 %ID/g
- Brain uptake ([2]; n = 12, listed as [18F]12): 0.61 ± 0.21 %ID/g
- time stable with no decomposition [3]: at least 2 h
- logD [4]: 2.67 ± 0.45
- time stable with no decomposition [5]: at least 2 h
- higher brain accumulation in WT compared to PLX mice (P2Y12R [6]; 25–60 min p.i., p = 0.0029): 42%
- higher brain accumulation in Trem2-/- compared to PLX mice (P2Y12R [6]; 25–60 min p.i., p = 0.0362): 30%
- maximum brain uptake C max (P2Y12R [6]; Trem2-/- mice): 1.7 ± 0.5 SUV
- brain uptake under self-block conditions (P2Y12R [6]; WT mice n = 2, 200-fold excess of nonradioactive 12 injected 10 min prior): increased brain uptake
- C 25min/C 60min (P2Y12R [6]; WT mice, brain TAC plateau phase): ~1.5
- time of maximum brain uptake (P2Y12R [6]; WT mice, p.i.): ≤ 2 min
- maximum brain uptake C max (P2Y12R [6]; WT mice): 2.5 ± 0.7 SUV
- brain V T increase in WT compared to PLX mice (P2Y12R [6]; image-derived cardiac input function, p = 0.002): 16%
- brain V T increase in Trem2-/- compared to PLX mice (P2Y12R [6]; image-derived cardiac input function, p = 0.0454): 10%
- maximum brain uptake C max (P2Y12R [6]; microglia-depleted (PLX) mice): 2.0 ± 0.5 SUV
- fraction of radioactivity in liver ([7]; WT mice, radio-HPLC): 47%
- fraction of radioactivity in plasma ([7]; WT mice, radio-HPLC): about 11%
- intact tracer in plasma ([7]; WT, PLX and Trem2-/- mice): 7 ± 4%
- intact tracer in brain ([7]; all groups): > 99%
- cortical signal under blocking with Ticagrelor (P2Y12R [8]; PLX sections, 1 μM ticagrelor, p > 0.05): no reduction was observed
- cortical signal under blocking with Ticagrelor (P2Y12R [8]; Trem2-/- sections, 1 μM ticagrelor, p < 0.05): significantly reduced
- cortical signal under blocking with Ticagrelor (P2Y12R [8]; WT sections, 1 μM ticagrelor (1000-fold excess), p < 0.001): significantly reduced
- signal under blocking with nonradioactive compound 12 (P2Y12R [8]; WT, PLX and Trem2-/- sections, 1 μM 12 (1000-fold excess)): almost complete blocking of the signal
- CTX signal normalized to HYP, PLX sections compared to WT and Trem2-/- (P2Y12R [8]; WT: p < 0.005, Trem2-/-: p < 0.001): significant decreased uptake
- correlation R between P2Y12R signal and tracer uptake (P2Y12R [9]; p = 0.0007): 0.754
- correlation R between Iba1 signal and tracer uptake (P2Y12R [9]; p = 0.0055): 0.6589
